Test results as given in the METLIN SMRT retention time set (Domingo-Almenara et al. 2019).

Assay: gradient 5% acetonitrile 3 min, to 50% in 2 min, to 85% in 15 min, held 3 min, 100 µL/min
Conditions: column: Zorbax Extend-C18 2.1 x 50 mm; eluents: water / acetonitrile, 0.1% formic acid
Outline: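 Retention times of pure standards were taken from adduct peaks that were selected by computer and manually inspected. Over 3 months, mixtures of ~100 molecules were run by HPLC–quadrupole time-of-flight mass spectrometry in positive and negative ionization mode. The Zorbax Extend-C18 column (2.1 × 50 mm, 1.8 μm) ran at 100 μL/min in water and acetonitrile, each containing 0.1% formic acid, with 40 μL dead volume and 900 μL dwell volume.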

Going from CCc1ccc(CNC(=O)CC2CCN(C(=O)c3[nH]c(C)cc3C)CC2)cc1 to Cc1ccc(CNC(=O)C2CCCN(C(=O)C3Sc4ccccc4NC3=O)C2)cc1 (centres undefined), the RP-LC retention time falls from 857 s to 782 s.

First: COc1ccc(C2C(C(=O)Nc3ccc4c(c3)OCO4)c3cc(OC)c(OC)cc3C(=O)N2C)cc1 (centres undefined)
Second: COc1ccc(N2C(=O)CCC(C(=O)NC(C)C)C2c2ccc(OC)c(OC)c2)cc1 (centres undefined)
The RP-LC retention time of the first is higher: 798 s for the first, 674 s for the second.

Compared with O=C(Cn1nc(Cc2cccnc2)c2ccccc2c1=O)N1CCN(C(=O)c2ccco2)CC1, COc1cc(CCC(=O)Nc2c(C(=O)N3CCN(c4ccccn4)CC3)oc3ccccc23)on1 is higher in RP-LC retention time: 578 s for the first, 642 s for the second.

Going from c1ccc(-c2noc(-c3cccnc3N3CCN(c4ccccc4)CC3)n2)cc1 to Cn1nccc1-c1cccc(-c2noc(-c3cccnc3)n2)c1, the RP-LC retention time falls from 1280 s to 876 s.

First: CNC(=O)c1cc2cccc3c2n1CC(C)S3 (centres undefined)
Second: Cc1ccc(C)c(NC(=O)Cc2csc(C)n2)c1
The RP-LC retention time of the first is higher: 853 s for the first, 788 s for the second.

Going from Cc1noc(C)c1CCNC(=O)CCCn1c(=O)c2cccn2c2ccc(Br)cc21 to COC(=O)CCNC(=O)c1cc2c(=O)n(CC(C)C)c3ccccc3n2n1, the RP-LC retention time rises from 803 s to 828 s.

Compared with COc1cccc(-c2nnc(Cc3nc(-c4ccc5c(c4)OCO5)no3)o2)c1, CCOc1ccc(-c2noc(Cc3nnc(-c4cccc(F)c4)o3)n2)cc1 is higher in RP-LC retention time: 977 s for the first, 1090 s for the second.

Compared with O=C(CN1c2ccc(F)cc2-c2ccccc2S1(=O)=O)NCCCN1CCOCC1, Cc1ccccc1Cc1c(C)nc2nc(SCC(=O)NCCCN3CCOCC3)nn2c1C is higher in RP-LC retention time: 625 s for the first, 643 s for the second.

Going from COc1cc2ncnc(Nc3cccc(Br)c3)c2cc1OC to CCCN1C(=O)COc2ccc(-c3csc(NC(=O)c4cc(OC)c(OC)c(OC)c4)n3)cc21, the RP-LC retention time rises from 771 s to 1040 s.

First: COc1ccc(NC(=O)N2CCC(Cc3nc4cccnc4n3C(C)C)C2)c(OC)c1 (centres undefined)
Second: COc1ccccc1-c1noc(C2CCCN2C(=O)Nc2ccccc2C)n1 (centres undefined)
The RP-LC retention time of the first is lower: 626 s for the first, 827 s for the second.

Compared with CCOc1ccc(NC(=O)Cn2nc(N3CCCC3)c3ccccc3c2=O)cc1, Cc1cccc(NC(=O)CN2C(=O)CCCc3cc(S(=O)(=O)N4CCC(C)CC4)ccc32)c1 is higher in RP-LC retention time: 809 s for the first, 1010 s for the second.

Going from O=C(Cc1cccs1)NCCCN1CCOC(c2ccccc2)C1 (centres undefined) to CCn1c(C(=O)NCCCOC(C)C)cc2c(-c3cccs3)nn(-c3ccccc3)c21, the RP-LC retention time rises from 556 s to 1150 s.

Going from CCOC(=O)Cc1csc(NC(=O)c2cc(=O)c3ccccc3o2)n1 to COCCNc1c(-c2cccc(F)c2)nc2sc(C(N)=O)c(C)n12, the RP-LC retention time falls from 754 s to 696 s.

Compared with CCN(CC)C(=O)c1ccc2nc(-c3ccc(Cl)cc3)cn2c1, COc1ccc(-c2nc3cnccn3c2Nc2ccc(C(=O)NCCN(C)C)cc2)cc1 is lower in RP-LC retention time: 681 s for the first, 586 s for the second.

Going from CCOC(=O)N1CCN(C(=O)Cc2c(C)nn(-c3nc(-c4ccc(C)cc4)cs3)c2C)CC1 to Cc1cccc(N2CCN(Cc3nc(-c4ccc(N5CCC(C)CC5)nc4)no3)CC2)c1C, the RP-LC retention time rises from 1070 s to 1280 s.

Compared with O=C(CCC[C@@H]1[C@H]2CCCN3CCC[C@@H](CN1C(=O)C1CC1)[C@@H]23)Nc1ccccc1, Cc1ccc(CNC(=O)C2CC(=O)N(c3ccc4c(c3)CCN4C(=O)C3CC3)C2)cc1 (centres undefined) is higher in RP-LC retention time: 609 s for the first, 756 s for the second.

First: Cc1ccc(NC(=O)N2CCCC2c2c(C)noc2C)cc1F (centres undefined)
Second: CN(C)c1ccc(N2C=C(C(=O)N3CCOCC3)S(=O)(=O)c3ccc(Cl)cc32)cc1
The RP-LC retention time of the first is lower: 809 s for the first, 875 s for the second.

Going from COC(=O)c1ncn2c1C(=O)N(Cc1ccccc1)C(C)(C(=O)NCc1ccc(C)cc1)C2 (centres undefined) to COc1ccc(C2(C(=O)NCc3ccc4c(c3)ncn4C(C)C)CC2)cc1, the RP-LC retention time falls from 734 s to 678 s.

First: CSc1ccc(-c2noc(Cc3nnc(-c4cccc(Br)c4)o3)n2)cc1
Second: Cc1ccc(-c2ccc(=O)n(CCc3nc(-c4ccc5c(c4)OCO5)no3)n2)cc1C
The RP-LC retention time of the first is higher: 1170 s for the first, 1020 s for the second.

First: COC(=O)c1c(NC(C)c2cccc(OC)c2)c2cccc(Cl)c2[nH]c1=O (centres undefined)
Second: CC(O)c1nc2ccccc2n1CC(=O)N(c1ccccc1)C(C)C (centres undefined)
The RP-LC retention time of the first is higher: 843 s for the first, 647 s for the second.

Going from CCN(CC)C(=O)[C@@H]1[C@H](c2cc(OC)c(OC)c(OC)c2)c2cc3c(cc2[C@H](O)[C@H]1CO)OCO3 to CCCn1nnc2cc(-c3noc(C4CC(=O)N(c5ccccc5)C4)n3)ccc21 (centres undefined), the RP-LC retention time rises from 679 s to 930 s.

Compared with NCc1nnnn1-c1ccc(Cl)cc1, C[C@H]1CN(S(=O)(=O)c2ccccc2)C[C@@H]1c1nc(-c2ccncc2)no1 is higher in RP-LC retention time: 522 s for the first, 871 s for the second.
